Measured values published in paper PMC7750480, “A hybrid approach reveals the allosteric regulation of GTP cyclohydrolase I” (Proceedings of the National Academy of Sciences of the …, 2020).
Each block holds one molecule with its values, some of them ahead of it.

How the values were obtained:
[1] = molecular target: T1, GCH1 (Homo sapiens, UniProt P30793); test: STD NMR assay with active site reporter ligand GTP; format: binding; details: addition of another active site binder
T1 construct: The hGCH1 (42-250, N-terminal 6xHis Tag and TEV cleavage site); 6xHis (N); TEV cleavage site (N); made in house; host or cells: E. coli BL21(DE3)
T1 sequence (P30793 42-250): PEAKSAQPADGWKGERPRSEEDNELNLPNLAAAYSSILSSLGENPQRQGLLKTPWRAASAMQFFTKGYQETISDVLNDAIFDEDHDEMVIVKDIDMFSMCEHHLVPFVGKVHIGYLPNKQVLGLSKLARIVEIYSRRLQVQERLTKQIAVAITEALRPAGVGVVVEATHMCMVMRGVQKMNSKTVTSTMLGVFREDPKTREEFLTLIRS
Source text: Supplemental Figure 6: Detection of product formation and STD NMR assay. A) Enzyme activity assay for GCH1 based on colorimetric detection of H2NTP or 1H-NMR detection of formate. […]
inhibitor (e.g. BH4). B) STD NMR is capable to detect GTP binding (green). Addition of another active site binder (8-oxo […]
STD NMR enhancement of substrate GTP in the presence of allosteric regulator BH4 (red). This screening assay allows for the identification of allosteric binders. C) Correlation of activity in functional NMR assay and STD NMR enhancement of active site reporter ligand GTP.
(1 picture or pasted object on this page, not shown here)

[2] = molecular target: T2, GCH1 F122A (Homo sapiens, UniProt P30793, F122A); test: differential scanning fluorimetry (DSF), F122A; format: binding
T2 construct: The hGCH1 (42-250, N-terminal 6xHis Tag and TEV cleavage site); 6xHis (N); TEV cleavage site (N); made in house; host or cells: E. coli BL21(DE3)
T2 sequence (P30793 42-250 F122A): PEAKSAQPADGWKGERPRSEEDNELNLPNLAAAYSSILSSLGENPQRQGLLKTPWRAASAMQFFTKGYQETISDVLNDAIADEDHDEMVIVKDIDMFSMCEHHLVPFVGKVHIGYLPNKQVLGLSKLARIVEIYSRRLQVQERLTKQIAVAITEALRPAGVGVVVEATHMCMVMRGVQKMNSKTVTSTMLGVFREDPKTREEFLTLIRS
Description: (§1) The Tm of proteins and protein complexes was determined by DSF using the Thermofluor Bio-Rad CFX384 and the Bio-Rad CFX Manager software. Ten micromolar protein solution was equipped with 5× SYPRO Orange Protein Gel Stain (Invitrogen) reaching a total volume of 10 μL. Effector molecules and GFRP were added in different concentrations to test their influence on thermal stability; 384 well plates were heated up using a temperature ramp from 15 °C to 95 °C in 1 °C/min steps.

[3] = molecular target: T3, GCH1 D127A (Homo sapiens, UniProt P30793, D127A); test: differential scanning fluorimetry (DSF), D127A; format: binding
T3 construct: The hGCH1 (42-250, N-terminal 6xHis Tag and TEV cleavage site); 6xHis (N); TEV cleavage site (N); made in house; host or cells: E. coli BL21(DE3)
T3 sequence (P30793 42-250 D127A): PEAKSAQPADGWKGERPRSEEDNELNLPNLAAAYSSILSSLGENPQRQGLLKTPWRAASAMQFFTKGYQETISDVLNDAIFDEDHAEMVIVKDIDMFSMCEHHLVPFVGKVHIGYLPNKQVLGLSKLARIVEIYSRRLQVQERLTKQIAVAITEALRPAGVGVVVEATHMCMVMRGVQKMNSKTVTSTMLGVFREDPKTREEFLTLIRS
Description: as §1

[4] = molecular target: T4, GCH1 R235A (Homo sapiens, UniProt P30793, R235A); test: differential scanning fluorimetry (DSF), R235A; format: binding
T4 construct: The hGCH1 (42-250, N-terminal 6xHis Tag and TEV cleavage site); 6xHis (N); TEV cleavage site (N); made in house; host or cells: E. coli BL21(DE3)
T4 sequence (P30793 42-250 R235A): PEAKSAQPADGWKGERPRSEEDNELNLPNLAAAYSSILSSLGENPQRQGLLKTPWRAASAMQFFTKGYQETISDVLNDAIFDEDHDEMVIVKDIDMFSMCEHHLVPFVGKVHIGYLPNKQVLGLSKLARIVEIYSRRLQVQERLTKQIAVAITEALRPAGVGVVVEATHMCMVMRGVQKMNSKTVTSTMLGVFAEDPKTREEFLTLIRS
Description: as §1

[5] = molecular target: T5, GCH1 WT (Homo sapiens, UniProt P30793); test: differential scanning fluorimetry (DSF), WT GCH1; format: binding; details: protein melting point in presence of GTP
T5 construct: The hGCH1 (42-250, N-terminal 6xHis Tag and TEV cleavage site); 6xHis (N); TEV cleavage site (N); made in house; host or cells: E. coli BL21(DE3)
T5 sequence (P30793 42-250): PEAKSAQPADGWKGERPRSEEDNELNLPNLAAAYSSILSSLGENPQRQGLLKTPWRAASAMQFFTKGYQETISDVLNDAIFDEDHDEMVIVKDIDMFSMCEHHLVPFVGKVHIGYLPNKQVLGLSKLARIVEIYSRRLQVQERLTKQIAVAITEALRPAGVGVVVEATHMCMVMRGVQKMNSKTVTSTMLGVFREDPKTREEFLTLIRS
Description: as §1

[6] = molecular target: T6, GCH1 E128A (Homo sapiens, UniProt P30793, E128A); test: differential scanning fluorimetry (DSF), E128A; format: binding; details: protein melting point in presence of GTP
T6 construct: The hGCH1 (42-250, N-terminal 6xHis Tag and TEV cleavage site); 6xHis (N); TEV cleavage site (N); made in house; host or cells: E. coli BL21(DE3)
T6 sequence (P30793 42-250 E128A): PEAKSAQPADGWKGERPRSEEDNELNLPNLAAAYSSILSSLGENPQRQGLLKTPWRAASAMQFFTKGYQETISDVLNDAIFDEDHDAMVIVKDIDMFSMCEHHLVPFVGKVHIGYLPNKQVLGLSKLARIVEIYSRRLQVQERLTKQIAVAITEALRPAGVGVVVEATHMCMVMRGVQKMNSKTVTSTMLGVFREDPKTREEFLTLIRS
Description: as §1

[7] = molecular target: T7, GCH1 R241A (Homo sapiens, UniProt P30793, R241A); test: differential scanning fluorimetry (DSF), R241A; format: binding
T7 construct: The hGCH1 (42-250, N-terminal 6xHis Tag and TEV cleavage site); 6xHis (N); TEV cleavage site (N); made in house; host or cells: E. coli BL21(DE3)
T7 sequence (P30793 42-250 R241A): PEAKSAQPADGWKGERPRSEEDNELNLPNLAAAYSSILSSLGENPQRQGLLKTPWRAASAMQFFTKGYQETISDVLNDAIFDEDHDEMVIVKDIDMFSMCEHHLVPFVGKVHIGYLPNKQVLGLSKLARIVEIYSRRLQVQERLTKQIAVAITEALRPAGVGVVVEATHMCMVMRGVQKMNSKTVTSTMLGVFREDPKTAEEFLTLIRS
Description: as §1

[8] = molecular target: T8, GCH1 H126A (Homo sapiens, UniProt P30793, H126A); test: differential scanning fluorimetry (DSF), H126A; format: binding
T8 construct: The hGCH1 (42-250, N-terminal 6xHis Tag and TEV cleavage site); 6xHis (N); TEV cleavage site (N); made in house; host or cells: E. coli BL21(DE3)
T8 sequence (P30793 42-250 H126A): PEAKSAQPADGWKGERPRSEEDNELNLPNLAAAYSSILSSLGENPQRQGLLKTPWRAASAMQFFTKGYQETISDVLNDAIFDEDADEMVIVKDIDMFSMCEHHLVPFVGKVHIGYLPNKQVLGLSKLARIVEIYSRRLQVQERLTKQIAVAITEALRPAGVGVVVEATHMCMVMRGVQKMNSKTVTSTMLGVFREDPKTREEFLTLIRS
Description: as §1

[9] = substrate: Nc1nc2c(ncn2[C@@H]2O[C@H](COP(=O)(O)OP(=O)(O)OP(=O)(O)O)[C@@H](O)[C@H]2O)c(=O)[nH]1; test: enzyme kinetics, H2NTP formation at 330 nm, WT GCH1; format: biochemical, human; details: other: substrate GTP 1-2000 µM, without GFRP, not stimulated/inhibited; pH 7.5; 37.0 °C
Description: In order to test the role of the key residues H126, D127, E128, R235, and R241 involved in allosteric inhibitor binding and conformational change, various point mutants were prepared and tested for their ability to be stimulated and inhibited by effector molecules in the presence or absence of GFRP. […] Enzyme activity was evaluated using an activity assay measuring the formation of the product H2NTP at 330 nm with increasing GTP concentrations.
GTPCH-I specific enzyme activity was determined by spectrometric measuring of the concentration of its direct product H2NTP. Synergy H1 (BioTek Instruments) and Gen5 2.01 software were used to evaluate H2NTP concentration and the maximal turnover rate (Vmax) within each measuring interval. H2NTP concentration was measured at 330 nm over a measuring period of 2 h using a measuring interval of 2 min to 4 min at 37 °C. Samples were prepared using 2 μM GTPCH-I, varying concentrations of GTP (1 μM to 2,000 µM) and in the absence or presence of 15 mM phenylalanine, 0.1 mM BH4, or 3 μM GFRP. The assay buffer used was 50 mM Tris/HCl, pH 7.5, 100 mM KCl. The specific enzyme activity (A) was calculated using the path length of 0.15 cm and the extinction coefficient […] = 6,300 M^−1⋅cm^−1 H2NTP. […] All enzymatic data were, at least, measured in triplicate (n = 3).

[10] = protein melting point in presence of GTP
[11] = shift of melting point with GTP

effect on STD NMR signal of GTP (active site competition) [1]: loss of the signal
Molecule: Nc1nc2c([nH]c(=O)n2[C@@H]2O[C@H](COP(=O)(O)OP(=O)(O)OP(=O)(O)O)[C@@H](O)[C@H]2O)c(=O)[nH]1 [8-oxo GTP, 8-oxo-GTP]

TM + GTP [2, 10]: 75.2 °C
ΔTM WT+GTP [2, 11]: 4.2 °C
TM + GTP [3, 10]: 78.0 °C
ΔTM WT+GTP [3, 11]: 5.0 °C
TM + GTP [4, 10]: 81.2 °C
ΔTM WT+GTP [4, 11]: 11.2 °C
TM + GTP [5]: 83.2 °C
TM + GTP [6]: 78.5 °C
TM + GTP [7, 10]: 86.2 °C
ΔTM WT+GTP [7, 11]: 17.7 °C
TM + GTP [8, 10]: 80.0 °C
ΔTM WT+GTP [8, 11]: 6.0 °C
Molecule: Nc1nc2c(ncn2[C@@H]2O[C@H](COP(=O)(O)OP(=O)(O)OP(=O)(O)O)[C@@H](O)[C@H]2O)c(=O)[nH]1 [GTP, Guanosine triphosphate]

B1: GCH1 (WT) (Homo sapiens) (protein)
chain: PEAKSAQPADGWKGERPRSEEDNELNLPNLAAAYSSILSSLGENPQRQGLLKTPWRAASAMQFFTKGYQETISDVLNDAIFDEDHDEMVIVKDIDMFSMCEHHLVPFVGKVHIGYLPNKQVLGLSKLARIVEIYSRRLQVQERLTKQIAVAITEALRPAGVGVVVEATHMCMVMRGVQKMNSKTVTSTMLGVFREDPKTREEFLTLIRS
notes: The hGCH1 (42-250, N-terminal 6xHis Tag and TEV cleavage site); 6xHis (N); TEV cleavage site (N); made in house; host or cells: E. coli BL21(DE3)
Km [9]: 106 µM
